This note sets out measurements from patent US11965039B2, “Compstatin analogues and their medical uses” (priority 2018, dated 2024).

Starred links: 1 amine or outer side, 2 acyl side, 3 side chain; linkers in the order of their positions; H or OH if unused. Positions of bridges follow the written chain, without caps; N, C: chain ends. Non-standard residues stand in square brackets, D forms with d. Residues, ends and D or L forms follow the SMILES beside them. Groups on a side chain read outwards from the residue. *: point of attachment. C20 diacid = O=C(O)CCCCCCCCCCCCCCCCCCC(=O)*; Trp(1-Me) = Cn1cc(C[C@H](N)C(=O)O)c2ccccc21; C18 diacid = O=C(O)CCCCCCCCCCCCCCCCC(=O)*; C16 diacid = O=C(O)CCCCCCCCCCCCCCC(=O)*; γGlu = O=C(O)[C@H](CCC(=O)[*:2])N[*:1]; AEEA = NCCOCCOCC(=O)O; Aoc = NCCCCCCCC(=O)O; Sar = CNCC(=O)O

As a reminder, the IC50 is the concentration at which inhibition is half-maximal.

The test system of the first experiment is classical complement pathway. Nature of the experiment: In vitro haemolysis assay (inhibition of classical complement pathway). To be noted: Table 5, different residues at position 3 of Ac-IC(1)XWQDWGEHRC(1)T-NH2; read-out: IC50, CP hemolysis. Format: cell-based, human. The procedure:
The in vitro effect of the compounds of the present invention was assessed by measuring their inhibitory effect of the classical complement pathway in a haemolysis assay. Briefly, compounds of the present invention and reference compounds were dissolved in DMSO and diluted in Tris/Casein Assay Buffer (10 mM Tris, 145 mM NaCl, 0.5 mM MgCl2, 0.15 mM CaCl2), and 0.1% W/V Casein, adjusted to pH 7.4) as 9-point serial dilutions in a 96 well plate. Sensitized sheep red blood cells (RBC) coated with rabbit anti-sheep erythrocyte antiserum (Complement Technology, Inc., TX, USA) were washed in Tris/Casein Assay Buffer. […] from each well of diluted compound was added to a 96-well plate containing 50 μL diluted human serum (Complement Technology, Inc., TX, USA) and incubated for 15 minutes at room temperature. The serum dilution factor was optimized for every serum batch to obtain 70-90% of maximal haemolysis using the protocol. Then 50 μL sensitized sheep red blood cells were added to all wells (10^7 per well). After 30 minutes of incubation at 37 QC with gentle agitation, the reaction was stopped by addition of 50 μL Tris STOP Buffer per well (10 mM EDTA, 10 mM Tris, 145 mM NaCl adjusted to pH 7.4). The RBCs were then removed by centrifugation and the resulting supernatant measured for hemolysis by absorbance at 405 nm. The response was normalized relative to a positive and negative control (vehicle) to calculate the IC50 from the concentration response curve using the 4-parameter logistic (4PL) nonlinear model for curve fitting.
With “Ac-IC(1)XWQDWGEHRC(1)T-NH2 [Beta-Homo-lsoleucine, reference compound]”, the IC50 is more than 10000 nM.

Still in this experiment, the particulars now being: human serum, sensitized sheep red blood cells; Table 3, given as upper bounds; read-out: IC50, inhibition of hemolysis.
Consider `CC[C@H](C)[C@@H]1NC(=O)[C@@H](NC(=O)[C@H](Cc2ccc(O)cc2)NC(=O)[C@H](CCC(=O)O)NC(=O)[C@H](CO)NC(C)=O)CSSC[C@@H](C(=O)N(C)CC(=O)N[C@@H](CCC(=O)O)C(=O)NCC(=O)N[C@@H](CCC(=O)O)C(=O)NCCOCCOCC(=O)NCCOCCOCC(=O)N[C@@H](CCCCNC(=O)CC[C@H](NC(=O)CNC(=O)CC[C@H](NC(=O)CCCCCCCCCCCCCCCCC(=O)O)C(=O)O)C(=O)O)C(N)=O)NC(=O)[C@H](CCCNC(=N)N)NC(=O)[C@H](Cc2c[nH]cn2)NC(=O)[C@H](CCC(=O)O)NC(=O)CNC(=O)[C@H](Cc2c[nH]c3ccccc23)NC(=O)[C@H](CC(=O)O)NC(=O)[C@H](CCC(N)=O)NC(=O)[C@H](Cc2cn(C)c3ccccc23)NC1=O` [Compound 117] (Ac-SEYCI[Trp(1-Me)]QDWGEHRC[Sar]EGE[AEEA][AEEA]K([γGlu-Gly-γGlu-C18 diacid])-NH2; disulfide 4-14), for which the IC50 is less than 250 nM.

For the compound `CC[C@H](C)[C@@H]1NC(=O)[C@@H](NC(=O)[C@H](Cc2ccccc2)NC(=O)[C@H](CCC(=O)O)NC(=O)[C@H](CO)NC(C)=O)CSSC[C@@H](C(=O)N(C)CC(=O)N[C@@H](CCC(=O)O)C(=O)NCC(=O)N[C@@H](CCC(=O)O)C(=O)NCCOCCOCC(=O)NCCOCCOCC(=O)N[C@@H](CCCCNC(=O)CC[C@H](NC(=O)CNC(=O)CC[C@H](NC(=O)CCCCCCCCCCCCCCC(=O)O)C(=O)O)C(=O)O)C(N)=O)NC(=O)[C@H](CCCNC(=N)N)NC(=O)[C@H](Cc2c[nH]cn2)NC(=O)[C@H](CCC(=O)O)NC(=O)CNC(=O)[C@H](Cc2c[nH]c3ccccc23)NC(=O)[C@H](CC(=O)O)NC(=O)[C@H](CCC(N)=O)NC(=O)[C@H](Cc2cn(C)c3ccccc23)NC1=O` [Compound 127] (Ac-SEFCI[Trp(1-Me)]QDWGEHRC[Sar]EGE[AEEA][AEEA]K([γGlu-Gly-γGlu-C16 diacid])-NH2; disulfide 4-14), the IC50 is less than 100 nM.

Regarding `CC[C@H](C)[C@@H]1NC(=O)[C@@H](NC(=O)[C@H](Cc2ccccc2)NC(=O)[C@H](CCC(=O)O)NC(C)=O)CSSC[C@@H](C(=O)N[C@@H](CCC(=O)O)C(=O)NCC(=O)N[C@@H](CCC(=O)O)C(=O)N[C@@H](CCCCNC(=O)CC[C@H](NC(=O)CNC(=O)CC[C@H](NC(=O)CCCCCCCCCCCCCCCCC(=O)O)C(=O)O)C(=O)O)C(N)=O)NC(=O)[C@H](CCCNC(=N)N)NC(=O)[C@H](Cc2c[nH]cn2)NC(=O)[C@H](CCC(=O)O)NC(=O)CNC(=O)[C@H](Cc2c[nH]c3ccccc23)NC(=O)[C@H](CC(=O)O)NC(=O)[C@H](CCC(N)=O)NC(=O)[C@H](Cc2cn(C)c3ccccc23)NC1=O` [Compound 134] (Ac-EFCI[Trp(1-Me)]QDWGEHRCEGEK([γGlu-Gly-γGlu-C18 diacid])-NH2; disulfide 3-13), the IC50 is less than 100 nM.

`CC[C@H](C)[C@@H]1NC(=O)[C@@H](NC(=O)CN(C)C(=O)[C@H](CCC(=O)O)NC(=O)[C@H](CO)NC(C)=O)CSSC[C@@H](C(=O)N(C)CC(=O)N[C@@H](CCC(=O)O)C(=O)N[C@@H](C)C(N)=O)NC(=O)[C@H](CCCNC(=N)N)NC(=O)[C@H](Cc2c[nH]cn2)NC(=O)[C@H](CCC(=O)O)NC(=O)CNC(=O)[C@H](Cc2c[nH]c3ccccc23)NC(=O)[C@H](CCC(=O)O)NC(=O)[C@H](CCC(N)=O)NC(=O)[C@H](Cc2cn(C)c3ccccc23)NC1=O` [Compound 90] (Ac-SE[Sar]CI[Trp(1-Me)]QEWGEHRC[Sar]EA-NH2; disulfide 4-14): the IC50 is less than 250 nM.

In the case of `CC[C@H](C)[C@@H]1NC(=O)[C@@H](NC(=O)[C@H](Cc2ccccc2)NC(=O)[C@H](CCC(=O)O)NC(C)=O)CSSC[C@@H](C(=O)N[C@@H](CCC(=O)O)C(=O)N[C@@H](CO)C(N)=O)NC(=O)[C@H](CCCNC(=N)N)NC(=O)[C@H](Cc2c[nH]cn2)NC(=O)[C@H](CCC(=O)O)NC(=O)CNC(=O)[C@H](Cc2c[nH]c3ccccc23)NC(=O)[C@H](CC(=O)O)NC(=O)[C@H](CCC(N)=O)NC(=O)[C@H](Cc2cn(C)c3ccccc23)NC1=O` [Compound 85] (Ac-EFCI[Trp(1-Me)]QDWGEHRCES-NH2; disulfide 3-13), the IC50 was less than 100 nM.

Take `CC[C@H](C)[C@H](NC(C)=O)C(=O)N[C@H]1CSSC[C@@H](C(=O)N[C@H](C(=O)N[C@@H](CCC(=O)O)C(=O)NCC(=O)N[C@@H](CCCCNC(=O)COCCOCCNC(=O)COCCOCCNC(=O)CC[C@H](NC(=O)CCCCCCCCCCCCCCCCCCC(=O)O)C(=O)O)C(N)=O)[C@@H](C)O)NC(=O)[C@H](CCCNC(=N)N)NC(=O)[C@H](Cc2c[nH]cn2)NC(=O)[C@H](CCC(=O)O)NC(=O)CNC(=O)[C@H](Cc2c[nH]c3ccccc23)NC(=O)[C@H](CC(=O)O)NC(=O)[C@H](CCC(N)=O)NC(=O)[C@H](Cc2c[nH]c3ccccc23)NC(=O)[C@H]([C@@H](C)CC)NC1=O` [Compound 98] (Ac-ICIWQDWGEHRCTEGK([AEEA-AEEA-γGlu-C20 diacid])-NH2; disulfide 2-12): the IC50 was less than 500 nM.

As to `CC[C@H](C)[C@@H]1NC(=O)[C@@H](NC(=O)[C@H](Cc2ccccc2)NC(=O)[C@H](CCC(=O)O)NC(=O)[C@H](CO)NC(C)=O)CSSC[C@@H](C(=O)N[C@H](C(=O)N[C@@H](CCC(=O)O)C(=O)NCC(=O)N[C@@H](CCC(=O)O)C(=O)NCCCCCCCC(=O)N[C@@H](CCCCNC(=O)CC[C@H](NC(=O)CNC(=O)CC[C@H](NC(=O)CCCCCCCCCCCCCCCCC(=O)O)C(=O)O)C(=O)O)C(N)=O)[C@@H](C)O)NC(=O)[C@H](CCCNC(=N)N)NC(=O)[C@H](Cc2c[nH]cn2)NC(=O)[C@H](CCC(=O)O)NC(=O)CNC(=O)[C@H](Cc2c[nH]c3ccccc23)NC(=O)[C@H](CC(=O)O)NC(=O)[C@H](CCC(N)=O)NC(=O)[C@H](Cc2cn(C)c3ccccc23)NC1=O` [Compound 136] (Ac-SEFCI[Trp(1-Me)]QDWGEHRCTEGE[Aoc]K([γGlu-Gly-γGlu-C18 diacid])-NH2; disulfide 4-14), the IC50 is less than 100 nM.

As for `CC[C@H](C)[C@H](NC(C)=O)C(=O)N[C@H]1CSSC[C@@H](C(=O)N[C@H](C(=O)NCC(=O)N[C@@H](C)C(=O)N[C@@H](CCC(=O)O)C(=O)N[C@@H](CO)C(N)=O)[C@@H](C)O)NC(=O)[C@H](CCCNC(=N)N)NC(=O)[C@H](Cc2c[nH]cn2)NC(=O)[C@H](C)NC(=O)CNC(=O)[C@H](Cc2c[nH]c3ccccc23)NC(=O)[C@H](CCCCN)NC(=O)[C@H](CCC(N)=O)NC(=O)[C@H](Cc2c[nH]c3ccccc23)NC(=O)[C@H]([C@@H](C)CC)NC1=O` [Compound 8] (Ac-ICIWQKWGAHRCTGAES-NH2; disulfide 2-12), the IC50 is less than 500 nM.

On to `CC[C@H](C)[C@@H]1NC(=O)[C@@H](NC(=O)[C@H](Cc2ccc(O)cc2)NC(=O)[C@H](CCC(=O)O)NC(=O)CNC(=O)[C@H](CO)NC(=O)[C@H](C)NC(C)=O)CSSC[C@@H](C(=O)N(C)CC(=O)N[C@@H](CCC(=O)O)C(=O)NCC(=O)N[C@@H](CCC(=O)O)C(=O)N[C@@H](CCCCNC(=O)CC[C@H](NC(=O)CNC(=O)CC[C@H](NC(=O)CCCCCCCCCCCCCCCCC(=O)O)C(=O)O)C(=O)O)C(N)=O)NC(=O)[C@H](CCCNC(=N)N)NC(=O)[C@H](Cc2c[nH]cn2)NC(=O)[C@H](CCC(=O)O)NC(=O)CNC(=O)[C@H](Cc2c[nH]c3ccccc23)NC(=O)[C@H](CC(=O)O)NC(=O)[C@H](CCC(N)=O)NC(=O)[C@H](Cc2cn(C)c3ccccc23)NC1=O` [Compound 113] (Ac-ASGEYCI[Trp(1-Me)]QDWGEHRC[Sar]EGEK([γGlu-Gly-γGlu-C18 diacid])-NH2; disulfide 6-16), for which the IC50 was less than 500 nM.

As to `CC[C@H](C)[C@@H]1NC(=O)[C@@H](NC(=O)[C@H](Cc2ccc(O)cc2)NC(=O)[C@H](CCC(=O)O)NC(=O)[C@H](CO)NC(C)=O)CSSC[C@@H](C(=O)N(C)CC(=O)N[C@@H](CCC(=O)O)C(=O)NCC(=O)N[C@@H](C)C(=O)N[C@@H](CCCCNC(=O)CC[C@H](NC(=O)CNC(=O)CC[C@H](NC(=O)CCCCCCCCCCCCCCCCC(=O)O)C(=O)O)C(=O)O)C(N)=O)NC(=O)[C@H](CCCNC(=N)N)NC(=O)[C@H](Cc2c[nH]cn2)NC(=O)[C@H](CCC(=O)O)NC(=O)CNC(=O)[C@H](Cc2c[nH]c3ccccc23)NC(=O)[C@H](CC(=O)O)NC(=O)[C@H](CCC(N)=O)NC(=O)[C@H](Cc2cn(C)c3ccccc23)NC1=O` [Compound 112] (Ac-SEYCI[Trp(1-Me)]QDWGEHRC[Sar]EGAK([γGlu-Gly-γGlu-C18 diacid])-NH2; disulfide 4-14), the IC50 is less than 500 nM.

Still in this experiment, the particulars now being: human serum, sensitized sheep red blood cells; Table 4, valine 3 vs isoleucine 3 pairs; read-out: CP hemolysis IC50.
Consider `CC[C@H](C)[C@H](NC(C)=O)C(=O)N[C@H]1CSSC[C@@H](C(=O)N[C@H](C(N)=O)[C@@H](C)O)NC(=O)[C@H](CCCNC(=N)N)NC(=O)[C@H](Cc2c[nH]cn2)NC(=O)[C@H](CO)NC(=O)CNC(=O)[C@H](Cc2c[nH]c3ccccc23)NC(=O)[C@H](CC(=O)O)NC(=O)[C@H](CCC(N)=O)NC(=O)[C@H](Cc2c[nH]c3ccccc23)NC(=O)[C@H](C(C)C)NC1=O` [B, reference compound] (Ac-ICVWQDWGSHRCT-NH2; disulfide 2-12), for which the IC50 is 360 nM.
